Drawing on ChEMBL document CHEMBL4342451, “α-Glucosidase Inhibitory Isomeric Corniculatolides from the Stems of the Indian Mangrove Plant, Xylocarpus granatum” (J Nat Prod, 2020), this text covers Activity and IC50 for eight compounds.

Assay [1] has as its system MIA PaCa-2. The assay is described as follows: Cytotoxicity against human MIAPaCa2 cells assessed as reduction in cell viability at 1 to 100 uM incubated for 24 to 48 hrs by SRB assay. In kind it is functional, cell-based. (The SRB assay estimates cell density from bound dye.)
The subject of assay [2] is MCF7. As to the kind of experiment: Cytotoxicity against human MCF7 cells assessed as reduction in cell viability at 1 to 100 uM incubated for 24 to 48 hrs by SRB assay. It is filed as functional, cell-based.
The subject of assay [3] is DU-145. As to the kind of experiment: Cytotoxicity against human DU145 cells assessed as reduction in cell viability at 1 to 100 uM incubated for 24 to 48 hrs by SRB assay. In kind it is functional, cell-based.
A short description of assay [4]: Inhibition of Saccharomyces cerevisiae alpha-glucosidase assessed as decrease in release of p-nitrophenol using pNPG as substrate preincubated for 15 min followed by substrate addition and measured after 5 mins by spectrophotometric method.
Assay [5] concerns HCT-116. As to the kind of experiment: Cytotoxicity against human HCT116 cells assessed as reduction in cell viability at 1 to 100 uM incubated for 24 to 48 hrs by SRB assay. It is filed as functional, cell-based.

Activity calls are given as the source filed them. No cut-off for these calls is given here.

A word on the IC50: it is the concentration at which inhibition is half-maximal. Consider `COc1c(O)cc2cc1Oc1ccc(cc1)CCCOC(=O)CC2`, for which the outcome in assay [1], in assay [2], in assay [3] and in assay [5] was inactive. The IC50 in assay [4] was over 200 µM.

`O=C1CCc2ccc(cc2)Oc2cc(ccc2O)CCCO1` [ISOCORNICULATOLIDE A]: the result in assay [1], in assay [2], in assay [3] and in assay [5] was inactive. The half-inhibitory concentration (IC50) in assay [4] was over 200 µM.

As for `C[C@H]1O[C@H](O[C@H]2[C@H](O)[C@@H](O)[C@@H](O[C@H]3[C@H](O)[C@@H](O)C(O)O[C@@H]3CO)O[C@@H]2CO)[C@H](O)[C@@H](O)[C@@H]1N[C@H]1C=C(CO)[C@@H](O)[C@H](O)[C@H]1O` (stereo partly specified) [ACARBOSE], in assay [4], the IC50 turned out to be 12.2 µM.

For the compound `COc1cc2cc(c1OC)Oc1ccc(cc1)CCC(=O)OCCC2`, the outcome in assay [1], in assay [2], in assay [3] and in assay [5] was inactive. The IC50 in assay [4] was 134 µM.

Regarding `COc1cc2cc(c1OC)Oc1ccc(cc1)CCCOC(=O)CC2`, the result in assay [1], in assay [2], in assay [3] and in assay [5] was inactive. Further, the concentration for half-maximal inhibition (IC50) in assay [4] turned out to be 72.3 µM.

As for `O=C1CCc2ccc(O)c(c2)Oc2ccc(cc2)CCCO1` [CORNICULATOLIDE A], the outcome in assay [1], in assay [2], in assay [3] and in assay [5] was inactive. In assay [4], the IC50 came out at 187 µM.

For the compound `COc1ccc2cc1Oc1ccc(cc1)CCCOC(=O)CC2`, the outcome in assay [1], in assay [2], in assay [3] and in assay [5] was inactive. Further, the IC50 in assay [4] was 65.4 µM.

Consider `O=C1CCc2cc(O)c(O)c(c2)Oc2ccc(cc2)CCCO1`, for which the outcome in assay [1], in assay [2], in assay [3] and in assay [5] was inactive. In addition, the IC50 in assay [4] worked out at 24.8 µM.
